In patent publication US20060008849A1, “Methods for measuring chloride channel conductivity” (priority 2004, published 2006):
pEC50, pIC50: −log10 of the molar value.

Key:
human GABAA channel = molecular target: T1, human GABAA channel (UniProt P18508+P28472+P62813); assay: Sandell-Kolthoff (SK) assay on the outwardly rectifying GABAA receptor (iodide efflux); format: cell-based; settings: IC50, decrease of GABAA channel conductivity
T1 construct: host or cells: ATCC CRL-2029 (WSS-1, HEK293-derived, by own knowledge)
T1 sequence (P62813 28-455): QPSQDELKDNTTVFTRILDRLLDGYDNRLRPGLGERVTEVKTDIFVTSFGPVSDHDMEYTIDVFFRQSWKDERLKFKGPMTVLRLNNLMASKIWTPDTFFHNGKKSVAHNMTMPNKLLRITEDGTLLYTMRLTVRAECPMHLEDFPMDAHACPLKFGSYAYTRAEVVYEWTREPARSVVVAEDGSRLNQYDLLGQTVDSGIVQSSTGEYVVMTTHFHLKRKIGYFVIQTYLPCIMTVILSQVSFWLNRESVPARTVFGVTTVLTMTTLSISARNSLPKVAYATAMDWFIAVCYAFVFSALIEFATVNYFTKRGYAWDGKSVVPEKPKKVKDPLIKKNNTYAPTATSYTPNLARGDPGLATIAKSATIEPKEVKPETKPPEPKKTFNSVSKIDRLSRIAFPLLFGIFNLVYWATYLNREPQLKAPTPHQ
T1 sequence (P28472 26-473): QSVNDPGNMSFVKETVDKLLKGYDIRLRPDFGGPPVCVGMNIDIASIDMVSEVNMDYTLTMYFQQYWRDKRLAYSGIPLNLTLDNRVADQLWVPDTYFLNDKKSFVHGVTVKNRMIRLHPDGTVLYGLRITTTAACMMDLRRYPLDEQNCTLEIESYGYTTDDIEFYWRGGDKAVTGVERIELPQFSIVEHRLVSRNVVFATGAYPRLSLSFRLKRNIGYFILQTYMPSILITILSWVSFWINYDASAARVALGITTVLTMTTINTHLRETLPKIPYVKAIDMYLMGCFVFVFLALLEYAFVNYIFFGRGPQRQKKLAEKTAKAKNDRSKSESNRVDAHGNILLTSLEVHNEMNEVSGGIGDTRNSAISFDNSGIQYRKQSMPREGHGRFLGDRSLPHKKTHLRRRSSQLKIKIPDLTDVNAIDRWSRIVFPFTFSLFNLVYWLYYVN
T1 sequence (P18508 39-466): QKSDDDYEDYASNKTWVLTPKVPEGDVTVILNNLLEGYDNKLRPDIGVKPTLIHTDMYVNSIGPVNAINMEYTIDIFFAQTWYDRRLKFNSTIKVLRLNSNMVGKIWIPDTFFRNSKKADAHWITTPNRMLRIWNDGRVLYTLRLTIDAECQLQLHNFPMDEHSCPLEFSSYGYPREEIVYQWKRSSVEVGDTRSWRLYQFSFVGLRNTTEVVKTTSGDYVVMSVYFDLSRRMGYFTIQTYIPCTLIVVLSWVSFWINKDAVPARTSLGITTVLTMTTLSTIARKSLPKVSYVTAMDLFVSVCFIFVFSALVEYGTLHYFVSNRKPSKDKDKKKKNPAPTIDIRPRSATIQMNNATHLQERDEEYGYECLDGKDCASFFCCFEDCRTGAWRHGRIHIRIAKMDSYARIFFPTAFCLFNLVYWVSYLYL
Protocol: In addition, the iodine loading buffer consisting of 150 mM NaI, 2 mM CaCl2, 0.8 mM NaH2PO4, 1 mM of MgCl2, and 5 mM of IK, 2% FBS (# 35-010-AV, CELLGRO, VA) pH7.4, was prepared by mixing and dissolving each described component into purified water, and adjusting the pH accordingly.
Cell line expressing human GABAA (Adenovirus type) was obtained from the American Type Culture Collection (ATCC, Cat No. CRL-2029). Cells were grown in supplemented DMEM medium consisting of DMEM medium (#10-017-CV, CELLGRO, VA), 4 mM L-glutamine, 1.5 g/L sodium bicarbonate, 4.5 g/L glucose, 1.0 mM sodium pyruvate, and 10% fetal bovine serum (# 35-010-AV, CELLGRO, VA)
Cells in supplemented DMEM medium (200 μl, approx. 250,000 cells/ml) were added to each well of a D-lysine coated 96-well plate (Corning, Cat No. 3667), and were incubated overnight in a tissue culture incubator at 37° C. under 90% air/10% CO2. Then, the supplemented DMEM medium was removed with a multichannel pipettor, and 200 μl iodine-loading buffer was added to each well with Rapid Plate™ (Zymark, MA). Cells were incubated for 2-4 hours at 37° C. under 90% air/10% CO2, and were subsequently washed with phosphate buffer saline (DPBS, Invitrogen, CA), or culture medium. […] The amount of I^− in the lysed cells was measured by the SK assay procedure described in Example 1.
IC50s were calculated with IDBS XL-fit model 205 (IDBS, UK).

human CFTR channel = assay: Sandell-Kolthoff (SK) assay on the outwardly rectifying CFTR channel, HTB-79 cells; format: cell-based
Protocol: HTB-79 cell line intrinsically expressing the human CFTR channel was obtained from ATCC. The CRL-1918 cell line, having a defective CFTR channel, was also obtained from ATCC. Cells were grown in Iscove's modified Dulbecco's medium consisting of Iscove's modified medium (CELLGRO, VA) and 4 mM L-glutamine, 1.5 g/L sodium bicarbonate, and 20% FBS (CELLGRO, VA). HTB-79 cells in Iscove's modified Dulbecco's medium (200 μl, approx. 500,000 cells/ml) were added to each well of a costar 96-well plate (Corning Costar, NY), and were incubated overnight in a tissue culture incubator at 37° C. under 90% air/5% CO2. Then, the Iscove's modified Dulbecco's medium was removed and 200 μl of iodine-loading buffer was added to each well of the plate. Cells were incubated for 2-4 hours at 37° C. under 90% air/5% CO2 and washed with DPBS (Invitrogen, CA) or culture medium. DPBS (100-200 μl) was added to each well. […] After the cells were incubated at room temperature for an additional 5 minutes, they were separated from the suspending buffer, and were lysed with 100 μl of cell lysis buffer (1% Triton X-100). The amount of I^− in the lysed cells was measured by the SK assay procedure described in Example 1. […] Forskolin stimulated adenylate cyclase activity resulting in increased level of cAMP, which in turn activated CFTR channel.

SMILES | pIC50 (human GABAA channel; in the presence of 30 μM GABA) | pIC50 (human GABAA channel; in the presence of 300 μM GABA) | lowest concentration at which activation of CFTR was detected (human CFTR channel) [nM] | pEC50 (human CFTR channel; one-half of activity with 100 μM Forskolin, read-out: EC50 for Forskolin, activation of CFTR channel)
CN1CCc2cc3c(cc2[C@H]1[C@@H]1OC(=O)c2c1ccc1c2OCO1)OCO3 [Bicuculline] | ~6.00 | ~4.30 |  | 
C=C[C@@]1(C)CC(=O)[C@]2(O)[C@@]3(C)[C@@H](O)CCC(C)(C)[C@@H]3[C@H](O)[C@H](OC(C)=O)[C@@]2(C)O1 [Forskolin] |  |  | 300 | 6.00
